The series relates to patterned neonatal rat cardiomyocytes. The series can be described thus: Multielectrode extracellular recordings from patterned spontaneously beating cardiomyocytes on MEAs (drug effect). Type of series: cell-based. The procedure:
MEAs containing 60, 10 μm diameter electrodes (Multichannel Systems, Germany) were cleaned by soaking the arrays in a detergent solution for 2 hours followed by sonication for 10 minutes. The arrays were then oxygen plasma cleaned for 20 minutes. Surface modification was completed by incubation of the MEAs in a 3 mM PEG silane, 2-[Methoxypoly(ethyleneoxy)propyl]trimethoxysilane (MW=460-590, Gelest), solution in toluene, with 37% concentrated HCL added to achieve a final value of 0.08% (0.8 ml HCL/L), for 45 minutes at room temperature. The arrays were then rinsed once in toluene, twice in ethanol, twice in water and sonicated in water for 2 minutes to remove the non-covalently linked material. The arrays were air dried with nitrogen and stored in a dessicator overnight.
The MEAs were patterned by laser ablation photolithography using a deep UV (193 nm) excimer laser (Lambda Physik) at a pulse power of 230 mW and a frequency of 10 Hz for 45 seconds through a quartz photomask (Bandwidth foundry, Eveleigh, Australia). The arrays were sterilized using 70% isopropanol and then incubated with 5 μg/ml of fibronectin in a Phosphate buffered solution (Invitrogen) for 20 minutes at room temperature. The solution was removed and the surface was first rinsed with PBS, followed by the plating medium, and then dried before the cells were plated.
The neonatal rat cardiomyocyte culture was prepared using the cardiac isolation kit from Worthington[40]. All animal work was approved by the UCF IACUC and followed NIH guidelines. Briefly, two day-old rat pups were euthanized in a precharged CO2 chamber. Hearts were dissected and minced in ice cold Hanks balanced salt solution (HBSS). Cardiac myocytes were dissociated by incubation of the hearts in trypsin (100 μg/ml in HBSS) for 16 hours at 2-8° C. The hearts in the trypsin solution were briefly warmed with a trypsin inhibitor before adding collegenase (300 units/ml in L-15 medium) for 45 minutes in a water bath at 37° C. followed by mechanical trituration. The cell solution was filtered to remove any remaining tissue and centrifuged at 50 g for 5 minutes at 22° C. The cells were resuspended in high glucose Dulbecco's modified eagle medium (DMEM, Gibco/Invitrogen) supplemented with 10 ml Fetal Bovine Serum (Gibco/Invitrogen) and 1 ml penicillin streptomycin (Gibco/Invitrogen), preplated in Petri dishes and incubated at 37° C. and in 5% CO2 for 45 minutes. This was necessary to eliminate the fibroblasts. The supernatant from the Petri dishes was centrifuged at 50 g for 5 min at 22° C. The cells were then resuspended in the plating medium. The serum-free plating medium consisted of: 100 ml Ultraculture medium (Bio Whittaker Cambrex) supplemented with 10 ml B27, 1 ml L-glutamine (Gibco/Invitrogen), 1 ml Penicillin Streptomycin, 0.375 g dextrose (Fisher Scientific) in 800 μl water, 1 ml non-essential amino acids and 1 ml of Hepes buffer (Gibco/Invitrogen)[41]. Additional growth factors were also added to improve cell survival in the serum-free conditions. They included 0.1 μg/ml of L-thyroxine, 10 ng/ml of Epidermal growth factor (Sigma-aldrich) and 0.5 μg/ml of Hydrocortisone (BD biosciences). Cells were plated at a density of 1000 cells/mm^2 on the MEAs. The medium was changed 24 hours after plating. Subsequent changing of the medium was performed every third day.
The cardiac myocytes were cultured on patterned metal MEAs (Planar 10 μm electrodes, 200 μm separation, Multichannel-systems). A 60 channel amplifier (MEA1040, Multichannel-systems) was used to record electrical activity from the spontaneously beating cardiac cells. The same electrodes were also used for stimulation utilizing a stimulus generator (STG 1002, Multichannel systems). The cells were stimulated utilizing 500 mV, 1 ms wide bipolar pulses at 2 Hz. The recording medium was the same as the plating medium with the pH adjusted to 7.3 using HEPES buffer. […]

The mark [1] stands for this setting: 2 μM Sparfloxacin in recording medium.

SMILES strings stand for the structures. Entries after “also recorded” stand apart in the source; their conditions may differ.

Consider `CCCCCCCO` [1-Heptanol], for which the “Conduction velocity (CV)” value (50 μM 1-Heptanol in recording medium, spontaneously beating cells, n=4 MEAs, before treatment 0.197±0.014 m/s) is 0.0066±0.0004 m/s. Besides, the “Time for propagation of the excitation wave versus value before treatment” value (50 μM 1-Heptanol, FPs recorded at 15 minute intervals) is reported as “significantly increased”. In addition, where the note is “1-Heptanol, 50 μM”, the “Effect on CV in the cardiac myocyte monolayers (in words)” value is listed as “drastically decreased the CV in the cardiac myocyte monolayers without completely blocking the conduction” and the “Synchronicity of the beating cells” value is reported as “maintaining the synchronicity of the beating cells”. Besides, the “Conduction velocity (CV), propagation of excitation after the drug” value (1-Heptanol, between electrodes 84 and 52 of the pattern, before drug 0.197 m/sec, FIG. 5) was 0.0066 m/sec.

Consider `C[C@@H]1CN(c2c(F)c(N)c3c(=O)c(C(=O)O)cn(C4CC4)c3c2F)C[C@H](C)N1` [Sparfloxacin], for which, under setting [1], the “Beating pattern, synchrony and conduction (in words)” value was “burst like activity with higher intra-burst frequencies and no synchrony between electrodes; also recorded: non-synchronous contractions similar to fibrillation and burst-like beating activity; also recorded: caused fibrillations which initiated a complete conduction block”; the “Field potential (FP) length” value is listed as “increased FP length”; the “Time to significant change in the spontaneous beating frequency” value was at most 25 min.

The values are drawn from US9404140B1, “Patterned cardiomyocyte culture on microelectrode array” (The University of Central Florida Research Foundation, Inc., priority 2009, dated 2016).
